{"source": "patent US4512976A", "about": "“Antibiotic stubomycin and process for the production thereof” (The Kitasato Institute, priority 1980, dated 1985)", "key": {"[1]": {"test_system": "Sarcina lutea ATCC 1001", "experiment": "Antimicrobial activity, MIC by agar dilution method", "type": "cell-based", "conditions": "Sarcina lutea ATCC 1001, agar dilution method"}, "[2]": {"test_system": "Trichophyton interdigitalis", "experiment": "Antimicrobial activity, MIC by agar dilution method", "type": "cell-based"}, "[3]": {"test_system": "Saccharomyces sake", "experiment": "Antimicrobial activity, MIC by agar dilution method", "type": "cell-based"}, "[4]": {"test_system": "Bacillus subtilis PCI 219", "experiment": "Antimicrobial activity, MIC by agar dilution method", "type": "cell-based", "conditions": "Bacillus subtilis PCI 219, agar dilution method"}, "[5]": {"test_system": "Ehrlich ascites carcinoma", "experiment": "Antitumor activity on Ehrlich ascites carcinoma", "conditions": "i.p.; for ILS (Increased life span) Ehrlich: vs untreated control"}, "[6]": {"test_system": "mice", "experiment": "Acute toxicity in mice", "type": "in vivo", "method": "Acute toxicity (LD50) in mice; approximately 400 mg/kg (i.p.), and over 1000 mg/kg (p.o.)"}, "[7]": {"test_system": "Alternaria kikuchiana", "experiment": "Antimicrobial activity, MIC by agar dilution method", "type": "cell-based"}, "[8]": {"test_system": "Piricularia oryzae", "type": "cell-based"}, "[9]": {"test_system": "Mycobacterium smegmatis", "experiment": "Antimicrobial activity, MIC by agar dilution method", "type": "cell-based"}, "[10]": {"test_system": "Microsporum gypseum", "experiment": "Antimicrobial activity, MIC by agar dilution method", "type": "cell-based"}, "[11]": {"test_system": "leukemia P388", "experiment": "Antitumor activity on leukemia P388", "conditions": "i.p.; for ILS (Increased life span) P388: vs untreated control"}, "[12]": {"test_system": "Xanthomonas oryzae", "type": "cell-based", "conditions": "agar dilution method"}, "[13]": {"test_system": "Escherichia coli NIHJ", "experiment": "Antimicrobial activity, MIC by agar dilution method", "type": "cell-based"}, "[14]": {"test_system": "Aspergillus niger", "experiment": "Antimicrobial activity, MIC by agar dilution method", "type": "cell-based"}, "[15]": {"test_system": "Candida albicans", "experiment": "Antimicrobial activity, MIC by agar dilution method", "type": "cell-based"}, "[16]": {"test_system": "Pseudomonas aeruginosa", "experiment": "Antimicrobial activity, MIC by agar dilution method", "type": "cell-based"}, "[17]": {"test_system": "Staphylococcus aureus FDA-209P", "experiment": "Antimicrobial activity, MIC by agar dilution method", "type": "cell-based"}, "[18]": {"conditions": "Day 1, 75 mg/kg/day, total 75 mg/kg"}, "[19]": {"conditions": "Day 1, 150 mg/kg/day, total 150 mg/kg"}, "[20]": {"conditions": "Day 1, 300 mg/kg/day, total 300 mg/kg"}, "[21]": {"conditions": "Days 1, 5, 9, 25 mg/kg/day, total 75 mg/kg"}, "[22]": {"conditions": "Days 1, 5, 9, 50 mg/kg/day, total 150 mg/kg"}, "[23]": {"conditions": "Days 1~9, 8.8 mg/kg/day, total 75 mg/kg"}, "[24]": {"conditions": "Days 1~9, 16.7 mg/kg/day, total 150 mg/kg"}, "[25]": {"conditions": "Days 1~9, 33.3 mg/kg/day, total 300 mg/kg"}}, "data": [{"smiles": "CO[C@H]1C[C@@H]2\\C=C(C)/C=C/C=C\\C(=O)N[C@H](c3ccccc3)C/C=C/CC[C@H](O)CC(=O)C2=C1O", "note": "[stubomycin]", "values": [{"measurement": "Minimum inhibitory concentration (MIC)", "setting": "[1]", "value": 0.4, "unit": "µg/mL"}, {"measurement": "Minimum inhibitory concentration (MIC)", "setting": "[2]", "value": 6.3, "unit": "µg/mL"}, {"measurement": "Minimum inhibitory concentration (MIC)", "setting": "[3]", "value": "> 200", "unit": "µg/mL"}, {"measurement": "Minimum inhibitory concentration (MIC)", "setting": "[4]", "value": 0.4, "unit": "µg/mL"}, {"measurement": "MSD (Median survival day) Ehrlich", "setting": "[5]; [18]", "value": 28, "unit": "days"}, {"measurement": "Number of cured mice, Ehrlich", "setting": "[5]; [18]", "value": 1}, {"measurement": "ILS (Increased life span) Ehrlich", "setting": "[5]; [18]", "value": 47, "unit": "%"}, {"measurement": "MSD (Median survival day) Ehrlich", "setting": "[5]; [19]", "value": 51, "unit": "days"}, {"measurement": "ILS (Increased life span) Ehrlich", "setting": "[5]; [19]", "value": 168, "unit": "%"}, {"measurement": "MSD (Median survival day) Ehrlich", "setting": "[5]; [20]", "value": 21, "unit": "days"}, {"measurement": "ILS (Increased life span) Ehrlich", "setting": "[5]; [20]", "value": 11, "unit": "%"}, {"measurement": "MSD (Median survival day) Ehrlich", "setting": "[5]; [21]", "value": 33, "unit": "days"}, {"measurement": "Number of cured mice, Ehrlich", "setting": "[5]; [21]", "value": 1}, {"measurement": "ILS (Increased life span) Ehrlich", "setting": "[5]; [21]", "value": 74, "unit": "%"}, {"measurement": "MSD (Median survival day) Ehrlich", "setting": "[5]; [22]", "value": 16, "unit": "days"}, {"measurement": "ILS (Increased life span) Ehrlich", "setting": "[5]; [22]", "value": -16, "unit": "%"}, {"measurement": "ILS (Increased life span) Ehrlich", "setting": "[5]; [23]", "value": 11, "unit": "%"}, {"measurement": "MSD (Median survival day) Ehrlich", "setting": "[5]; [24]", "value": 50, "unit": "days"}, {"measurement": "Number of cured mice, Ehrlich", "setting": "[5]; [24]", "value": 1}, {"measurement": "ILS (Increased life span) Ehrlich", "setting": "[5]; [24]", "value": 163, "unit": "%"}, {"measurement": "MSD (Median survival day) Ehrlich", "setting": "[5]; [25]", "value": 33, "unit": "days"}, {"measurement": "Number of cured mice, Ehrlich", "setting": "[5]; [25]", "value": 1}, {"measurement": "ILS (Increased life span) Ehrlich", "setting": "[5]; [25]", "value": 74, "unit": "%"}, {"measurement": "MSD (Median survival day) Ehrlich", "setting": "[5]; Days 1~9, total 75 mg/kg", "value": 21, "unit": "days"}, {"measurement": "Acute toxicity (LD50)", "setting": "[6]; i.p.", "value": "approximately 400 mg/kg"}, {"measurement": "Acute toxicity (LD50)", "setting": "[6]; p.o.", "value": "over 1000 mg/kg"}, {"measurement": "Minimum inhibitory concentration (MIC)", "setting": "[7]", "value": 6.3, "unit": "µg/mL"}, {"measurement": "Minimum inhibitory concentration (MIC)", "setting": "[8]", "value": 3.1, "unit": "µg/mL"}, {"measurement": "Minimum inhibitory concentration (MIC)", "setting": "[9]", "value": 3.1, "unit": "µg/mL"}, {"measurement": "Minimum inhibitory concentration (MIC)", "setting": "[10]", "value": 12.5, "unit": "µg/mL"}, {"measurement": "MSD (Median survival day) P388", "setting": "[11]; [18]", "value": 17, "unit": "days"}, {"measurement": "ILS (Increased life span) P388", "setting": "[11]; [18]", "value": 42, "unit": "%"}, {"measurement": "MSD (Median survival day) P388", "setting": "[11]; [19]", "value": 17, "unit": "days"}, {"measurement": "ILS (Increased life span) P388", "setting": "[11]; [19]", "value": 42, "unit": "%"}, {"measurement": "MSD (Median survival day) P388", "setting": "[11]; [20]", "value": 17, "unit": "days"}, {"measurement": "ILS (Increased life span) P388", "setting": "[11]; [20]", "value": 42, "unit": "%"}, {"measurement": "MSD (Median survival day) P388", "setting": "[11]; [21]", "value": 16, "unit": "days"}, {"measurement": "ILS (Increased life span) P388", "setting": "[11]; [21]", "value": 33, "unit": "%"}, {"measurement": "MSD (Median survival day) P388", "setting": "[11]; [22]", "value": 15, "unit": "days"}, {"measurement": "ILS (Increased life span) P388", "setting": "[11]; [22]", "value": 25, "unit": "%"}, {"measurement": "MSD (Median survival day) P388", "setting": "[11]; [23]", "value": 15, "unit": "days"}, {"measurement": "ILS (Increased life span) P388", "setting": "[11]; [23]", "value": 25, "unit": "%"}, {"measurement": "MSD (Median survival day) P388", "setting": "[11]; [24]", "value": 11, "unit": "days"}, {"measurement": "ILS (Increased life span) P388", "setting": "[11]; [24]", "value": -8, "unit": "%"}, {"measurement": "MSD (Median survival day) P388", "setting": "[11]; [25]", "value": 9, "unit": "days"}, {"measurement": "ILS (Increased life span) P388", "setting": "[11]; [25]", "value": -25, "unit": "%"}, {"measurement": "Minimum inhibitory concentration (MIC)", "setting": "[12]", "value": "> 100", "unit": "µg/mL"}, {"measurement": "Minimum inhibitory concentration (MIC)", "setting": "[13]", "value": "> 200", "unit": "µg/mL"}, {"measurement": "Minimum inhibitory concentration (MIC)", "setting": "[14]", "value": "> 100", "unit": "µg/mL"}, {"measurement": "Minimum inhibitory concentration (MIC)", "setting": "[15]", "value": "> 100", "unit": "µg/mL"}, {"measurement": "Minimum inhibitory concentration (MIC)", "setting": "[16]", "value": "> 200", "unit": "µg/mL"}, {"measurement": "Minimum inhibitory concentration (MIC)", "setting": "[17]", "value": 3.1, "unit": "µg/mL"}]}]}
